In patent publication US20250313533A1, “QUINOLINE CARBOXYLIC ACID ESTER COMPOUND AND PREPARATION METHOD AND USE THEREOF” (priority 2019, published 2025):

How the values were obtained:
[1] = test system: pathogenic bacteria causing bacterial wilt in tobacco; experiment: whole plant or invertebrate; format: cell-based, ralstonia; conditions: read-out: inhibitory rate
[2] = test system: pathogenic bacteria causing black rot in Chinese cabbages; experiment: In vitro bactericidal activity, black rot in Chinese cabbages; format: cell-based, xanthomonas; conditions: Xanthomonas, read-out: inhibitory rate; for inhibition at 1 ppm: dosage 1 ppm; for inhibition at 5 ppm: dosage 5 ppm
[3] = test system: pathogenic bacteria causing bacterial blight in rice; experiment: whole plant or invertebrate; format: cell-based, xanthomonas; conditions: read-out: inhibitory rate
black shank in potatoes = experiment: Living crops in vivo protective activity, potatoes (root irrigation); conditions: Solanum tuberosum, read-out: efficacy against black shank in potatoes; for pest or weed control at 5 ppm: dosage 5 ppm; for pest or weed control at 10 ppm: dosage 10 ppm
Procedure: Root irrigation was carried out on the potatoes for tests according to the designed concentration of the agents. The dosage for each plant was 200 mL and was kept consistent (also for the control). The black shank bacteria were inoculated on the second day after the application. The results were investigated according to the disease condition.

[4] = test system: pathogenic bacteria causing stem rot in sweet potatoes; experiment: In vitro bactericidal activity, stem rot in sweet potatoes; format: cell-based, dikia; conditions: read-out: inhibitory rate; for inhibition at 1 ppm: dosage 1 ppm; for inhibition at 5 ppm: dosage 5 ppm
[5] = test system: pathogenic bacteria causing fruit blotch in watermelons; experiment: In vitro bactericidal activity, fruit blotch in watermelons; format: cell-based, acidovorax; conditions: read-out: inhibitory rate; for inhibition at 1 ppm: dosage 1 ppm; for inhibition at 5 ppm: dosage 5 ppm
[6] = test system: stem rot in sweet potatoes; experiment: whole plant or invertebrate; conditions: read-out: efficacy against stem rot in sweet potatoes
bacterial blight in rice = experiment: whole plant or invertebrate; conditions: Oryza sativa, read-out: efficacy against bacterial blight in rice
[7] = test system: indoor potted cucumber seedlings; experiment: Effect of improving growth and development of crops; format: in vivo; set-up: Rate of growth rate increase (%): concentration or dose not given beside the values; conditions: versus blank control; for Rate of chlorophyll content increase (%) / Rate of leaf area increase (%): 14 days after application; for Rate of growth rate increase (%): plant height 14 days after application; for Rate of leaf area increase (%): second leaf
In short: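 Indoor potted cucumber seedlings treated with compound; plant height and second-leaf length and width measured before and 14 days after application. Growth rate, leaf area and their percentage increases derived by formula; leaf chlorophyll content read with a SPAD meter.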

cucumber seedlings = experiment: Safety for plant growth after application; format: in vivo; conditions: dosage 200 ppm
In short: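 Indoor potted cucumber seedlings were treated with the compounds, and crop safety was judged from effects on plant height growth rate, chlorophyll content and leaf area.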

[8] = test system: fruit blotch in watermelons; experiment: whole plant or invertebrate; conditions: read-out: efficacy against fruit blotch in watermelons
[9] = test system: pathogenic bacteria causing bacterial wilt in cassava; experiment: organism not typed; format: cell-based; conditions: read-out: inhibitory rate
[10] = test system: soft rot in Chinese cabbages; experiment: whole plant or invertebrate; conditions: 48 h, read-out: efficacy against soft rot in Chinese cabbages
[11] = test system: pathogenic bacteria causing black shank in potatoes; experiment: In vitro bactericidal activity, black shank in potatoes; format: cell-based; conditions: read-out: inhibitory rate; for inhibition at 1 ppm: dosage 1 ppm; for inhibition at 5 ppm: dosage 5 ppm
[12] = test system: bacterial wilt in tobacco; experiment: whole plant or invertebrate; conditions: Nicotiana tabacum, read-out: efficacy against bacterial wilt in tobacco
[13] = test system: pathogenic bacteria causing fire blight in pears; experiment: In vitro bactericidal activity, fire blight in pears; format: cell-based, erwinia; conditions: Erwinia, read-out: inhibitory rate; for inhibition at 1 ppm: dosage 1 ppm; for inhibition at 5 ppm: dosage 5 ppm
[14] = test system: pathogenic bacteria causing bacterial angular leaf spot in cucumbers; experiment: In vitro bactericidal activity, bacterial angular leaf spot in cucumbers; format: cell-based, pseudomonas; conditions: read-out: inhibitory rate; for inhibition at 1 ppm: dosage 1 ppm; for inhibition at 5 ppm: dosage 5 ppm

Row | SMILES | inhibition at 1 ppm [1] [%] | inhibition at 5 ppm [1] [%] | inhibition at 1 ppm [2] [%] | inhibition at 5 ppm [2] [%] | inhibition at 1 ppm [3] [%] | inhibition at 5 ppm [3] [%] | pest or weed control at 5 ppm (black shank in potatoes) [%] | pest or weed control at 10 ppm (black shank in potatoes) [%] | inhibition at 1 ppm [4] [%] | inhibition at 5 ppm [4] [%] | inhibition at 1 ppm [5] [%] | inhibition at 5 ppm [5] [%] | pest or weed control at 5 ppm [6] [%] | pest or weed control at 10 ppm [6] [%] | pest or weed control at 5 ppm (bacterial blight in rice) [%] | pest or weed control at 10 ppm (bacterial blight in rice) [%] | Rate of chlorophyll content increase (%) [7] [%] | Rate of growth rate increase (%) [7] [%] | Rate of leaf area increase (%) [7] [%] | safety for plant growth (discoloration, necrosis, wilt, malformation) (cucumber seedlings) | also measured
1 | CCSc1cc2c(cc1F)c(=O)c(C(=O)OCCO)cn2C1CC1 [Compound 372] | ≥ 90 | ≥ 90 | ≥ 90 | ≥ 90 | ≥ 90 | ≥ 90 | ≥ 90 | ≥ 90 | ≥ 90 | ≥ 90 | ≥ 90 | ≥ 90 | ≥ 90 | ≥ 90 | ≥ 90 | ≥ 90 | 11 | 8 | 10 | safe for plant growth | pest or weed control at 5 ppm [8]: ≥ 90%; pest or weed control at 10 ppm [8]: ≥ 90%; inhibition at 1 ppm [9]: ≥ 90%; inhibition at 5 ppm [9]: ≥ 90%; pest or weed control at 5 ppm [10]: ≥ 90%; pest or weed control at 10 ppm [10]: ≥ 90%; inhibition at 1 ppm [11]: ≥ 90%; inhibition at 5 ppm [11]: ≥ 90%; pest or weed control at 5 ppm [12]: ≥ 90%; pest or weed control at 10 ppm [12]: ≥ 90%; inhibition at 1 ppm [13]: ≥ 90%; inhibition at 5 ppm [13]: ≥ 90%; inhibition at 1 ppm [14]: ≥ 90%; inhibition at 5 ppm [14]: ≥ 90%
2 | COCCOC(=O)c1cn(C2CC2)c2cc(OCC(F)(F)F)ccc2c1=O [Compound 364] | ≥ 80 | ≥ 90 | ≥ 80 | ≥ 90 | ≥ 80 | ≥ 90 | ≥ 80 | ≥ 90 | ≥ 80 | ≥ 90 | ≥ 80 | ≥ 90 | ≥ 90 | ≥ 90 | ≥ 80 | ≥ 90 | 12 | 7 | 9 | safe for plant growth | pest or weed control at 5 ppm [8]: ≥ 90%; pest or weed control at 10 ppm [8]: ≥ 90%; inhibition at 1 ppm [9]: ≥ 80%; inhibition at 5 ppm [9]: ≥ 90%; pest or weed control at 5 ppm [10]: ≥ 80%; pest or weed control at 10 ppm [10]: ≥ 90%; inhibition at 1 ppm [11]: ≥ 80%; inhibition at 5 ppm [11]: ≥ 90%; pest or weed control at 5 ppm [12]: ≥ 90%; pest or weed control at 10 ppm [12]: ≥ 90%; inhibition at 1 ppm [13]: ≥ 80%; inhibition at 5 ppm [13]: ≥ 90%; inhibition at 1 ppm [14]: ≥ 80%; inhibition at 5 ppm [14]: ≥ 90%
3 | CNc1cc2c(cc1F)c(=O)c(C(=O)OCCO)cn2C1CC1 [Compound 400] | ≥ 90 | ≥ 90 | ≥ 90 | ≥ 90 | ≥ 90 | ≥ 90 | ≥ 90 | ≥ 90 | ≥ 90 | ≥ 90 | ≥ 90 | ≥ 90 | ≥ 90 | ≥ 90 | ≥ 90 | ≥ 90 | 17 | 13 | 18 | safe for plant growth | pest or weed control at 5 ppm [8]: ≥ 90%; pest or weed control at 10 ppm [8]: ≥ 90%; inhibition at 1 ppm [9]: ≥ 90%; inhibition at 5 ppm [9]: ≥ 90%; pest or weed control at 5 ppm [10]: ≥ 90%; pest or weed control at 10 ppm [10]: ≥ 90%; inhibition at 1 ppm [11]: ≥ 90%; inhibition at 5 ppm [11]: ≥ 90%; pest or weed control at 5 ppm [12]: ≥ 90%; pest or weed control at 10 ppm [12]: ≥ 90%; inhibition at 1 ppm [13]: ≥ 90%; inhibition at 5 ppm [13]: ≥ 90%; inhibition at 1 ppm [14]: ≥ 90%; inhibition at 5 ppm [14]: ≥ 90%
